Source: US20260165323A1, “USE OF STROBILURIN TYPE COMPOUNDS FOR COMBATING PHYTOPATHOGENIC FUNGI CONTAINING AN AMINO ACID SUBSTITUTION F129L IN THE MITOCHONDRIAL CYTOCHROME B PROTEIN CONFERRING RESISTANCE TO QO […]” (priority 2022, published 2026)

Tests used:
[1] = system: Phakopsora pachyrhizi containing the amino acid substitution F129L in the mitochondrial cytochrome b protein; assay: Use Example 1: protective control of soybean rust on soybeans (PHAKPA P2); type: in vivo; conditions: inoculated 2 days after spraying, % diseased leaf area
In short: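 Soybean seedling leaves sprayed to run-off with compound in acetone/DMSO–Wettol–water at the stated concentration, kept 2 days at 23-27° C, then inoculated with Qo-inhibitor-resistant F129L P. pachyrhizi. After 24 h at ~95% RH, 20-24° C, and up to 14 days in greenhouse, % diseased leaf area scored visually.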

[2] = system: Phakopsora pachyrhizi containing the amino acid substitution F129L in the mitochondrial cytochrome b protein; assay: Use Example 2: protective control of soybean rust on soybeans (PHAKPA P6); type: in vivo; conditions: inoculated six days after spraying, % diseased leaf area
In short: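 Compound in acetone and/or DMSO with Wettol (99:1), diluted with water, was sprayed to run-off on potted soybean seedlings. After six days at 23–27°C and 60–80% RH, plants were inoculated with a Qo-resistant F129L strain and held 24 h at about 95% RH. Percent diseased leaf area was scored visually after up to 14 days.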

[3] = system: Puccinia recondita; assay: Use Example 3: curative control of brown rust on wheat (PUCCRT K4); type: in vivo; conditions: % diseased leaf area
In short: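 Wheat seedlings inoculated with Puccinia recondita spores, held 24 h at 95–99% RH, 20–24° C in dark, then 3 days in greenhouse before spraying to run-off (curative). Compound in acetone/DMSO–Wettol–water. After 5–7 further days at 20–24° C, 65–70% RH, % diseased leaf area scored visually.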

[4] = system: Puccinia recondita; assay: Use Example 4: preventative control of brown rust on wheat (PUCCRT P7); type: in vivo; conditions: inoculated seven days after spraying, % diseased leaf area
In short: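 First two leaves of potted wheat seedlings sprayed to run-off with compound in acetone/DMSO–emulsifier–water, then inoculated with Puccinia recondita spores seven days later. Plants held 24 h dark at 95–99% RH and 20–24 °C, then 9–11 days in greenhouse; diseased leaf area (%) scored visually.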

[5] = system: Alternaria solani (ALTESO); assay: Use example 5: microtest, growth of Alternaria solani (ALTESO); type: cell-based; conditions: 0.125 ppm; relative growth vs compound-free control (100%), 7 days after inoculation
Protocol: (§1) The active compounds were formulated separately as a stock solution having a concentration of 10000 ppm in dimethyl sulfoxide. The stock solutions were mixed according to the ratio, pipetted onto a micro titer plate (MTP) and diluted with water to the stated concentrations. A spore suspension of one of the following fungal plant pathogens in aqueous bio malt solution • was then added for the respective use example: • Use example 5: Alternaria solani (ALTESO) • Use example 6: Botrytis cinerea (BOTRCI) • Use example 7: Cercospora sojina (CERCSO) • Use example 8: Colletotrichum orbiculare (COLLLA) • Use example 9: Leptosphaeria nodorum (LEPTNO) • Use example 10: Drechslera teres (PYRNTE) containing the amino acid substitution F129L in the mitochondrial cytochrome b protein conferring resistance to Qo inhibitors • Use example 11: Sclerotinia sclerotiorum (SCLESC), solute with ultrasonic from a filter membrane
(§2) The plates were placed in a water vapor-saturated chamber at a temperature of 18° C. Using an absorption photometer, the MTPs were measured at 405 nm 7 days after the inoculation.
(§3) The measured parameters were compared to the growth of the active compound-free control variant (100%) and the fungus-free blank value to determine the relative growth in % of the pathogens in the respective active compounds.

[6] = system: Sclerotinia sclerotiorum (SCLESC); assay: Use example 11: microtest, growth of Sclerotinia sclerotiorum (SCLESC); type: cell-based; conditions: relative growth vs compound-free control (100%), 7 days after inoculation; for Growth (%) SCLESC Use ex. 11: 8 ppm
Protocol: as §1, §2, §3

[7] = system: Botrytis cinerea (BOTRCI); assay: Use example 6: microtest, growth of Botrytis cinerea (BOTRCI); type: cell-based; conditions: relative growth vs compound-free control (100%); for Growth at 125 ppm (%) BOTRCI Use Ex. 6: 7 days after inoculation
Protocol: as §1, §2, §3

[8] = system: Cercospora sojina (CERCSO); assay: Use example 7: microtest, growth of Cercospora sojina (CERCSO); type: cell-based; conditions: 31 ppm; relative growth vs compound-free control (100%), 7 days
Protocol: as §1, §2, §3

[9] = system: Drechslera teres (PYRNTE) containing the amino acid substitution F129L in the mitochondrial cytochrome b protein; assay: Use example 10: microtest, growth of Drechslera teres (PYRNTE) F129L; type: cell-based; conditions: 125 ppm; relative growth vs compound-free control (100%), 7 days; Table 7
Protocol: as §1, §2, §3

[10] = system: Leptosphaeria nodorum (LEPTNO); assay: Use example 9: microtest, growth of Leptosphaeria nodorum (LEPTNO); type: cell-based; conditions: relative growth vs compound-free control (100%), 7 days after inoculation
Protocol: as §1, §2, §3

| Compound | % PHAKPA (F129L) Disease level P2 at 4 ppm [1] [%] | % PHAKPA (F129L) Disease level P2 at 16 ppm [1] [%] | % PHAKPA (F129L) Disease level P6 at 4 ppm [2] [%] | % PHAKPA (F129L) Disease level P6 at 16 ppm [2] [%] | % PUCCRT Disease level K4 at 4 ppm [3] [%] | % PUCCRT Disease level K4 at 16 ppm [3] [%] | % PUCCRT Disease level P7 at 4 ppm [4] [%] | % PUCCRT Disease level P7 at 16 ppm [4] [%] | Growth (%) ALTESO Use ex. 5 [5] [%] | Growth (%) SCLESC Use ex. 11 [6] [%] | Growth (%) BOTRCI Use Ex. 6 ([7]; 0.5 ppm, 7 days) [%] | Growth (%) CERCSO Use Ex. 7 [8] [%] | Growth (%) PYRNTE F129L Use Ex. 10 [9] [%] | Growth at 125 ppm (%) BOTRCI Use Ex. 6 [7] [%] | Growth at 125 ppm (%) LEPTNO Use Ex. 9 [10] [%] | Growth at 125 ppm (%) SCLESC Use Ex. 11 [6] [%] |
| --- | --- | --- | --- | --- | --- | --- | --- | --- | --- | --- | --- | --- | --- | --- | --- | --- |
| COC/C(=N\OCc1c(Cl)cccc1/C(=N\OC)C(=O)OC)c1ccc(F)cc1 [compound 1, Methyl (2E)-2-[3-chloro-2-[[(Z)-[1-(4-fluorophenyl)-2-methoxy-ethylidene]amino]oxymethyl]phenyl]-2-methoxyimino-acetate] | 20 | 1 | 57 | 11 | 87 | 77 | 53 | 23 | 73 | 72 | – | – | – | – | – | – |
| COC/C(=N\OCc1c(Cl)cccc1/C(=N\OC)C(=O)OC)c1ccc(Cl)cc1 [compound 34] | 68 | 22 | 80 | 25 | 75 | 70 | 48 | 9 | – | – | 35 | 56 | 4 | – | – | – |
| COC/C(=N\OCc1c(Br)cccc1/C(=N\OC)C(=O)OC)c1ccccc1 [compound 57] | 41 | 3 | 48 | 21 | – | – | 60 | 13 | – | – | – | – | – | 0 | 1 | 2 |
| CO/N=C(/C(=O)OC)c1cccc(Br)c1CO/N=C(\C)c1ccccc1 [reference compound] | – | – | – | – | – | – | – | – | – | – | – | – | – | 69 | 19 | 39 |
| COC/C(=N\OCc1c(C)cccc1/C(=N\OC)C(=O)OC)c1ccc(F)cc1 [reference compound] | – | – | – | – | – | – | – | – | 97 | 89 | – | – | – | – | – | – |
